For 1 compound, IC50 results are on record in patent publication US20220220373A1, “FLUORESCENT PROBES FOR MONOACYLGLYCEROL LIPASE (MAGL)” (Hoffmann-La Roche Inc., priority 2019, published 2022).

The target of the test is T1, MAGL (Homo sapiens, UniProt Q99685).
T1 sequence (Q99685 1-303): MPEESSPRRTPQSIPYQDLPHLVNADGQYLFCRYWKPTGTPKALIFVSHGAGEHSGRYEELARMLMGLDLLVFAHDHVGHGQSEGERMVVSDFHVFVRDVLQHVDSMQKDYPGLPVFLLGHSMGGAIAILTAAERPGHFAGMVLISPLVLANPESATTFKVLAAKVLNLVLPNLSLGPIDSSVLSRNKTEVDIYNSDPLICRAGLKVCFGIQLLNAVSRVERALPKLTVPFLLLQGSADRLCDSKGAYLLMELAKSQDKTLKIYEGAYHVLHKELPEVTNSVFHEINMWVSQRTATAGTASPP
Description: 2-AG assay (MAGL inhibitory activity, hydrolysis of 2-arachidonoylglycerol followed by mass spectrometry). In kind it is biochemical. Particulars: 50 pM MAGL, 8 μM 2-arachidonoylglycerol, 15 min pre-incubation, 30 min incubation at RT. The procedure:
Compounds were profiled for MAGL inhibitory activity by determining the enzymatic activity by following the hydrolysis of the natural substrate 2-arachidonoylglycerol (2-AG) resulting in arachidonic acid, which can be followed by mass spectrometry. This assay is hereinafter abbreviated “2-AG assay”.
The 2-AG assay was carried out in 384 well assay plates (PP, Greiner Cat#784201) in a total volume of 20 μL. Compound dilutions were made in 100% DMSO (VWR Chemicals 23500.297) in a polypropylene plate in 3-fold dilution steps to give a final concentration range in the assay from 12.5 μM to 0.8 pM. […] compound dilutions (100% DMSO) were added to 9 μL MAGL in assay buffer (50 mM TRIS (GIBCO, 15567-027), 1 mM EDTA (Fluka, 03690-100 mL), 0.01% (v/v) Tween. After shaking, the plate was incubated for 15 min at RT. To start the reaction, 10 μL 2-arachidonoylglycerol in assay buffer was added. The final concentrations in the assay was 50 pM MAGL and 8 μM 2-arachidonoylglyerol. After shaking and 30 min incubation at RT, the reaction was quenched by the addition of […] of ACN containing 4 μM of d8-arachidonic acid. The amount of arachidonic acid was traced by an online SPE system (Agilent Rapidfire) coupled to a triple quadrupole mass spectrometer (Agilent 6460). A C18 SPE cartridge (G9205A) was used in an ACN/water liquid setup. The mass spectrometer was operated in negative electrospray mode following the mass transitions 303.1→259.1 for arachidonic acid and 311.1→267.0 for d8-arachidonic acid. The activity of the compounds was calculated based on the ratio of intensities [arachidonic acid/d8-arachidonic acid].

Broadly, the IC50 is the concentration at which inhibition is half-maximal. Low values mean higher potency, high ones lower potency. `CC(C)(C)OC(=O)NCCOc1ccc(C(=C2CCN(C(=O)N3CC[C@@H]4OCC(=O)N[C@@H]4C3)CC2)c2ccccc2)cc1` [Example 25, tert-Butyl (2-(4-((1-((4aR,8aS)-3-oxooctahydro-2H-pyrido[4,3-b][1,4]oxazine-6-carbonyl)piperidin-4-ylidene)(phenyl)methyl)phenoxy)ethyl)carbamate] gave an IC50 of 13 nM.
